In PMC2873968, “Novel protein kinase D inhibitors cause potent arrest in prostate cancer cell growth and motility” (BMC Chemical Biology, 2010):

What was measured:
recombinant human PKD3 = target: T1, recombinant human PKD3 (Homo sapiens, UniProt O94806); assay: In vitro radiometric PKD kinase assay; assay type: biochemical; conditions: for IC50: radiometric kinase assay, mean ± S.E.M.
T1 construct: purchased Enzo Life Sciences
T1 sequence (O94806 1-890): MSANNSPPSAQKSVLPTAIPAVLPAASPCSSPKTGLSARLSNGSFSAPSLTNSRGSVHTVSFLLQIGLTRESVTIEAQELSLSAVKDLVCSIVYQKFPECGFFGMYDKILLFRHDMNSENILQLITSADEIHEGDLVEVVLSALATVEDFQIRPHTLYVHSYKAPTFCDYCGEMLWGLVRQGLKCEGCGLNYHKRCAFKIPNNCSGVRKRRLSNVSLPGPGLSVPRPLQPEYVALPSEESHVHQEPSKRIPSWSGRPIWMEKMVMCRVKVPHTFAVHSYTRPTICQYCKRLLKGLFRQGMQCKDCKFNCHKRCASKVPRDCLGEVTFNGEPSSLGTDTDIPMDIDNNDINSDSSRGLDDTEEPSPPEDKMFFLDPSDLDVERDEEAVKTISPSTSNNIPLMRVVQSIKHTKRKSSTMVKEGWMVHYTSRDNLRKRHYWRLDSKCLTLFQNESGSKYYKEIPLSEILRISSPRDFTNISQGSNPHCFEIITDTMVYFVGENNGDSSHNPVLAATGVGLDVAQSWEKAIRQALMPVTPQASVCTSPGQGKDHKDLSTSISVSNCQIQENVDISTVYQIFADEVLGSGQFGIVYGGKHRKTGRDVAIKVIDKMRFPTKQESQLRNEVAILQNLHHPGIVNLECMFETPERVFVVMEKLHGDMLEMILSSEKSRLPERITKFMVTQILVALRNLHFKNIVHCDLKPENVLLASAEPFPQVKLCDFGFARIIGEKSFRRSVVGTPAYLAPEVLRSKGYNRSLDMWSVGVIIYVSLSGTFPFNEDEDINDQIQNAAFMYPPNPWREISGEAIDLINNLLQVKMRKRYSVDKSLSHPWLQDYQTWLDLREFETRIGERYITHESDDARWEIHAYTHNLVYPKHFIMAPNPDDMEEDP
Description: In vitro radiometric kinase assays were conducted as previously described. Briefly, 1 μCi [γ-^32P] ATP (PerkinElmer Life Sciences), 70 μM ATP, 50 ng purified recombinant human PKD1 (Biomol International, Plymouth Meeting, PA), PKD2 (SignalChem, Richmond, BC, Canada), or CAMKIIα (Enzo Life Sciences) or 75 ng PKD3 (Enzo Life Sciences), and 2.5 μg syntide-2 (Sigma) in 50 μl kinase buffer containing 50 mM Tris-HCl, pH 7.5, 4 mM MgCl2, and 10 mM β-mercaptoethanol. For the CAMK assay, 0.5 mM CaCl2 and 30 ng/μl calmodulin were pre-incubated for 10 min on ice, and then added to each reaction mixture. The reaction was incubated at 30°C for 10 min, and 25 μl of the reaction mixture was then spotted onto Whatman P81 filter paper (Whatman Inc., Clifton, NJ). The filter papers were washed 3 times in 0.5% phosphoric acid, air-dried, and counted using a Beckman LS6500 multipurpose scintillation counter (Beckman).
The in vitro inhibitory activities of the novel compounds toward PKD were determined using radiometric PKD kinase activity assays. Recombinant human PKD1, -2, or -3 was incubated with the substrate, syntide-2, in the presence of 10 different concentrations of each compound. IC50 values were determined for each compound by plotting percent PKD activity versus compound concentration for each point.

PKD1 = target: T2, PKD1 (Homo sapiens, UniProt Q15139); assay: Inhibition of PMA-induced endogenous PKD1 activation in LNCaP cells (Western blot); assay type: cell-based; parameters: endogenous in cells; host or cells: LNCaP; conditions: 45 min pretreatment, 100 nM PMA 20 min, densitometry of Western blots, mean ± S.E.M., read-out: Cellular IC50, inhibition of PKD1 autophosphorylation at S916
T2 sequence (Q15139 1-912): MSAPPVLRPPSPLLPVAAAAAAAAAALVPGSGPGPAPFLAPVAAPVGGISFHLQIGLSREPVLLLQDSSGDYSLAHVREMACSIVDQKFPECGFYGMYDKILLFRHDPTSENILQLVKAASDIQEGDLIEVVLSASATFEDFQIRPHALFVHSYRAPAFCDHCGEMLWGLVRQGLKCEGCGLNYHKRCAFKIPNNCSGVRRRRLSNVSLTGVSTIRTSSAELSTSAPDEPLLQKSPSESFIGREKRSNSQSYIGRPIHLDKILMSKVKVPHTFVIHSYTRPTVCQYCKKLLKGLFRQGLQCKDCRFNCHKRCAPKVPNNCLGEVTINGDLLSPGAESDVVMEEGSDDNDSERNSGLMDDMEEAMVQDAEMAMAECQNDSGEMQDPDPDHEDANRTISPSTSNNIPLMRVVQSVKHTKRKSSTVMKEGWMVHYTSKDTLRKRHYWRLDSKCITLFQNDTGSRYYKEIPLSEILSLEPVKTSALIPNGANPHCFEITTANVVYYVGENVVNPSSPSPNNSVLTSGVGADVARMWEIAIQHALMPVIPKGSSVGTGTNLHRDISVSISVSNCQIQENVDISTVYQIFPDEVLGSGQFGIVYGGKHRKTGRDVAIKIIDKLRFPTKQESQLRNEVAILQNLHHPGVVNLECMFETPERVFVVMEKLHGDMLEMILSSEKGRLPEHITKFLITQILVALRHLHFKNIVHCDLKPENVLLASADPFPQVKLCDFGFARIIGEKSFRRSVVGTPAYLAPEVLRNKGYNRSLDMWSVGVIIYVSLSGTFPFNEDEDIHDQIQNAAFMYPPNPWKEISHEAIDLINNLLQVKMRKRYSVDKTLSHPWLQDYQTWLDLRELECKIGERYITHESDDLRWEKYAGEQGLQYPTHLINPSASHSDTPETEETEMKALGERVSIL
Description: LNCaP cells were maintained as described previously. Western blot analysis was carried out as previously reported. Briefly, cells were lysed in lysis buffer containing 200 mM Tris-HCl, pH 7.4, 100 μM 4-(2-aminoethyl) benzenesulfonyl fluoride, 1 mM EGTA, and 1% Triton X-100. Protein concentration was determined using the BCA Protein Concentration Assay reagent kit (Pierce) and then equal amounts of protein were subjected to SDS-PAGE followed by electrotransfer to nitrocellulose membranes. Membranes were blocked with 5% nonfat milk in Tris-buffered saline and then probed with primary antibodies for either p-S916-PKD1 (Millipore), p-S742-PKCμ/PKD (Biosource), or GAPDH, followed by anti-mouse or anti-rabbit secondary antibodies conjugated to horseradish peroxidase (Bio-Rad). The enhanced chemiluminescence (ECL) Western blotting detection system (Amersham Biosciences) was used to facilitate detection of protein bands.
LNCaP cells were pretreated with indicated concentrations of the five analogs for 45 min, then stimulated with 100 nM PMA for 20 min. Cell lysates were immunoblotted for p-S916-PKD1 and p-S742-PKD1. GAPDH was blotted as a loading control. The experiment was repeated at least three times and representative blots are shown.

PC3 cells = assay: Cyclin D1 and cyclin D3 levels (Western blot); assay type: cell-based

Structure (SMILES): O=C1NCCSc2c1sc1ccc(O)cc21 [kb-NB142-70]
- fold stronger inhibition of PKD3 than CID755673 (recombinant human PKD3): about 4 fold
- IC50 (recombinant human PKD3): 53.2 ± 3.5 nM
- IC50 (PKD1): 2.2 ± 0.6 µM

Structure (SMILES): O=C1NCCCc2c1oc1ccc(O)cc21 [CID755673, 7-Hydroxy-2,3,4,5-tetrahydro-[1]benzoxolo[2,3-c]azepin-1-one]
- cyclin D1 and D3 levels (PC3 cells; 48 hrs): induced cyclin D1 and D3 expression in a concentration-dependent manner

Structure (SMILES): O=C1NCCSc2c1sc1ccc(O)c(I)c21 [kb-NB165-31]
- IC50 (recombinant human PKD3): 91.1 ± 17.2 nM
- IC50 (PKD1): 8.6 ± 2 µM

Structure (SMILES): O=C1NCCCSc2c1sc1ccc(O)cc21 [kb-NB165-92]
- cell death (PC3 cells; 10 μM): caused significant cell death
- fold greater inhibition of PKD3 than PKD1 or -2 (recombinant human PKD3): about 2 fold
- IC50 (recombinant human PKD3): 58.8 ± 7.3 nM
- change of potency for PKD3 (recombinant human PKD3; versus kb-NB142-70): not altering potency
- IC50 (PKD1): 2.6 ± 0.7 µM

Structure (SMILES): COc1ccc2sc3c(c2c1)SCCNC3=O [kb-NB165-09]
- IC50 (recombinant human PKD3): 98.5 ± 15.3 nM
- IC50 (PKD1): 3.1 ± 0.5 µM

Structure (SMILES): COc1ccc2sc3c(c2c1)SCCCNC3=O [kb-NB184-02]
- IC50 (recombinant human PKD3): 325 ± 39 nM
- IC50 (PKD1): 18.6 ± 2 µM
